Results from PubChem BioAssay AID330 (DTP/NCI, 2004).
Where “and” joins values, the source holds several entries; their conditions need not be identical. Identical values can stand only once. Toxic doses and inconclusive results are not listed. How the source made its calls: active means survival T/C of 150% or more; inactive means T/C below 125% in these data.

Test system: P388 leukemia ip, CD2F1 mice, survival T/C
Experiment: NCI In Vivo Anticancer Drug Screen. Data for tumor model P388 Leukemia (intraperitoneal) in CD2F1 (CDF1) mice
Conditions: endpoint: median survival time, higher = longer survival
Summary of the method: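 Mice carrying the transplanted tumor received test compound or vehicle. Survival was recorded in each group, and the value is the treated-group measurement divided by that of the vehicle-treated control group.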

[1] = dose: 100.0 mg/kg/injection, schedule: Q04DX003 (ip), vehicle: saline
[2] = dose: 200.0 mg/kg/injection, schedule: Q04DX003 (ip), vehicle: saline
[3] = dose: 50.0 mg/kg/injection, schedule: Q01DX009 (ip), vehicle: Klucel (hydroxypropylcellulose) (HPC)
[4] = dose: 200.0 mg/kg/injection, schedule: Q01DX009 (ip), vehicle: Klucel (hydroxypropylcellulose) (HPC)
[5] = dose: 12.5 mg/kg/injection, schedule: Q01DX009 (ip), vehicle: Klucel (hydroxypropylcellulose) (HPC)
[6] = dose: 25.0 mg/kg/injection, schedule: Q01DX009 (ip), vehicle: Klucel (hydroxypropylcellulose) (HPC)
[7] = dose: 25.0 mg/kg/injection, schedule: Q04DX002 (ip), vehicle: saline with Tween-80
[8] = dose: 50.0 mg/kg/injection, schedule: Q04DX002 (ip), vehicle: saline with Tween-80
[9] = dose: 50.0 mg/kg/injection, schedule: Q01DX009 (ip), vehicle: saline
[10] = dose: 100.0 mg/kg/injection, schedule: Q01DX009 (ip), vehicle: saline
[11] = dose: 200.0 mg/kg/injection, schedule: Q01DX009 (ip), vehicle: saline
[12] = dose: 50.0 mg/kg/injection, schedule: Q01DX005 (ip), vehicle: saline with Tween-80
[13] = dose: 100.0 mg/kg/injection, schedule: Q01DX005 (ip), vehicle: saline with Tween-80

Measured: T/C

O=C1CC(O)C2C(=O)c3c(c(Cl)c4ccccc4c3O)C(=O)C2C1 (centres undefined)
inactive: dose: 60.0 mg/kg/injection, schedule: Q01DX005 (ip), vehicle: Klucel (hydroxypropylcellulose) (HPC) 94 % of control | dose: 120.0 mg/kg/injection, schedule: Q01DX005 (ip), vehicle: Klucel (hydroxypropylcellulose) (HPC) 94 % of control | dose: 240.0 mg/kg/injection, schedule: Q01DX005 (ip), vehicle: Klucel (hydroxypropylcellulose) (HPC) 93 % of control

CS(=O)(=O)OCC(O)C(O)COS(C)(=O)=O (centres undefined)
inactive: dose: 50.0 mg/kg/injection, schedule: Q01DX001 (ip), vehicle: Klucel (hydroxypropylcellulose) (HPC) 106 % of control | dose: 100.0 mg/kg/injection, schedule: Q01DX001 (ip), vehicle: Klucel (hydroxypropylcellulose) (HPC) 110 % of control | dose: 100.0 mg/kg/injection, schedule: Q01DX001 (ip), vehicle: saline 100 % of control | dose: 100.0 mg/kg/injection, schedule: Q01DX001 (oral), vehicle: saline 100 % of control | dose: 100.0 mg/kg/injection, schedule: Q01DX009 (oral), vehicle: saline 104 % of control | dose: 100.0 mg/kg/injection, schedule: Q03HX008 (ip), vehicle: saline 100 % of control | dose: 100.0 mg/kg/injection, schedule: Q03HX016 (ip), vehicle: saline 100 % of control | dose: 100.0 mg/kg/injection, schedule: Q03HX024 (ip), vehicle: saline 100 % of control | dose: 100.0 mg/kg/injection, schedule: Q04DX003 (ip), vehicle: saline with Tween-80 109 % of control | [1] 104 % of control | dose: 100.0 mg/kg/injection, schedule: Q08DX002 (ip), vehicle: saline 104 % of control | dose: 200.0 mg/kg/injection, schedule: Q01DX001 (ip), vehicle: Klucel (hydroxypropylcellulose) (HPC) 110 % of control | dose: 200.0 mg/kg/injection, schedule: Q01DX001 (ip), vehicle: saline 100 % of control | dose: 200.0 mg/kg/injection, schedule: Q01DX001 (oral), vehicle: saline 100 % of control | dose: 200.0 mg/kg/injection, schedule: Q01DX009 (oral), vehicle: saline 104 % of control | dose: 200.0 mg/kg/injection, schedule: Q03HX008 (ip), vehicle: saline 100 % of control | dose: 200.0 mg/kg/injection, schedule: Q03HX016 (ip), vehicle: saline 100 % of control | dose: 200.0 mg/kg/injection, schedule: Q03HX024 (ip), vehicle: saline 100 % of control | dose: 200.0 mg/kg/injection, schedule: Q04DX003 (ip), vehicle: saline with Tween-80 104 % of control | [2] 100 % of control | dose: 200.0 mg/kg/injection, schedule: Q08DX002 (ip), vehicle: saline 104 % of control | dose: 400.0 mg/kg/injection, schedule: Q01DX001 (ip), vehicle: saline 100 % of control | dose: 400.0 mg/kg/injection, schedule: Q01DX001 (oral), vehicle: saline 109 % of control | dose: 400.0 mg/kg/injection, schedule: Q01DX009 (ip), vehicle: saline 90 % of control | dose: 400.0 mg/kg/injection, schedule: Q01DX009 (oral), vehicle: saline 100 % of control | dose: 400.0 mg/kg/injection, schedule: Q03HX008 (ip), vehicle: saline 109 % of control | dose: 400.0 mg/kg/injection, schedule: Q03HX016 (ip), vehicle: saline 100 % of control | dose: 400.0 mg/kg/injection, schedule: Q03HX024 (ip), vehicle: saline 100 % of control | dose: 400.0 mg/kg/injection, schedule: Q04DX003 (ip), vehicle: saline with Tween-80 118 % of control | dose: 400.0 mg/kg/injection, schedule: Q04DX003 (ip), vehicle: saline 104 % of control | dose: 400.0 mg/kg/injection, schedule: Q08DX002 (ip), vehicle: saline 104 % of control | dose: 800.0 mg/kg/injection, schedule: Q01DX001 (ip), vehicle: saline 109 % of control | dose: 800.0 mg/kg/injection, schedule: Q01DX001 (oral), vehicle: saline 100 % of control | dose: 800.0 mg/kg/injection, schedule: Q01DX009 (oral), vehicle: saline 113 % of control | dose: 800.0 mg/kg/injection, schedule: Q03HX008 (ip), vehicle: saline 109 % of control | dose: 800.0 mg/kg/injection, schedule: Q03HX016 (ip), vehicle: saline 100 % of control | dose: 800.0 mg/kg/injection, schedule: Q03HX024 (ip), vehicle: saline 100 % of control | dose: 800.0 mg/kg/injection, schedule: Q04DX003 (ip), vehicle: saline 114 % of control | dose: 800.0 mg/kg/injection, schedule: Q08DX002 (ip), vehicle: saline 104 % of control

CCNC(=O)C#CC(=O)NCC
inactive: [3] 92 % of control | dose: 100.0 mg/kg/injection, schedule: Q01DX009 (ip), vehicle: Klucel (hydroxypropylcellulose) (HPC) 92 % of control | [4] 95 % of control

CC(=O)Nc1ccc(C(=O)C(C)Br)cc1 (centres undefined)
inactive: dose: 6.25 mg/kg/injection, schedule: Q01DX009 (ip), vehicle: saline with Tween-80 106 % of control and 117 % of control and 119 % of control | dose: 12.5 mg/kg/injection, schedule: Q01DX009 (ip), vehicle: saline with Tween-80 116 % of control and 117 % of control and 124 % of control | dose: 25.0 mg/kg/injection, schedule: Q01DX009 (ip), vehicle: saline with Tween-80 108 % of control and 119 % of control and 124 % of control

N#CSc1ccc2nc(NC(NC=O)C(Cl)(Cl)Cl)sc2c1 (centres undefined)
inactive: dose: 6.25 mg/kg/injection, schedule: Q01DX009 (ip), vehicle: Klucel (hydroxypropylcellulose) (HPC) 105 % of control | [5] 110 % of control | [6] 103 % of control

C/C(=N\N=C(/N)N1CCCC1)c1ccc2c(c1)Cc1cc(/C(C)=N/N=C(\N)N3CCCC3)ccc1-2
inactive: [7] 98 % of control | [8] 98 % of control

C/C(=N\NC(=S)N1CCC(c2ccccc2)CC1)c1ccccn1
inactive: [1] 100 % of control | [2] 101 % of control

CC(=O)OCC1OC(n2ncc(=O)[nH]c2=O)C(OC(C)=O)C1OC(C)=O (centres undefined)
inactive: dose: 50.0 mg/kg/injection, schedule: Q01DX009 (ip), vehicle: saline with Tween-80 122 % of control | dose: 100.0 mg/kg/injection, schedule: Q01DX009 (ip), vehicle: saline sonified 118 % of control | dose: 100.0 mg/kg/injection, schedule: Q01DX009 (ip), vehicle: saline with Tween-80 122 % of control | dose: 200.0 mg/kg/injection, schedule: Q01DX009 (ip), vehicle: saline sonified 122 % of control | dose: 400.0 mg/kg/injection, schedule: Q01DX009 (ip), vehicle: saline sonified 118 % of control | dose: 800.0 mg/kg/injection, schedule: Q01DX009 (ip), vehicle: saline with Tween-80 100 % of control

Clc1c(Cl)c(Cl)c(SC2C3CC4C(C3)C42)c(Cl)c1Cl (centres undefined)
inactive: [9] 103 % of control | [10] 108 % of control | [11] 101 % of control

N#CN
inactive: dose: 12.5 mg/kg/injection, schedule: Q01DX009 (ip), vehicle: suspension in saline 103 % of control | dose: 25.0 mg/kg/injection, schedule: Q01DX009 (ip), vehicle: suspension in saline 97 % of control | [9] 91 % of control and 103 % of control | dose: 50.0 mg/kg/injection, schedule: Q01DX009 (ip), vehicle: suspension in saline 107 % of control | [10] 101 % of control and 106 % of control | [11] 102 % of control

Brc1cc(Br)c2ccccc2c1OCC1CO1 (centres undefined)
inactive: [5] 106 % of control and 95 % of control | [6] 106 % of control | [3] 88 % of control and 89 % of control and 95 % of control | [4] 91 % of control

O=Cc1cc(CCl)ccc1O
inactive: dose: 12.5 mg/kg/injection, schedule: Q01DX005 (ip), vehicle: saline with Tween-80 103 % of control | dose: 25.0 mg/kg/injection, schedule: Q01DX005 (ip), vehicle: saline with Tween-80 110 % of control | [12] 113 % of control | [13] 98 % of control

CCC/C(=N\NC(N)=Nc1ccc(Cl)cc1)c1ccc(Cl)cc1
inactive: [7] 99 % of control | [8] 100 % of control | dose: 100.0 mg/kg/injection, schedule: Q04DX002 (ip), vehicle: saline with Tween-80 104 % of control

CC(=O)NC(CCSSCCC(NC(C)=O)C(=O)ON1C(=O)CCC1=O)C(=O)ON1C(=O)CCC1=O (centres undefined)
inactive: [12] 104 % of control | [13] 105 % of control | dose: 200.0 mg/kg/injection, schedule: Q01DX005 (ip), vehicle: saline with Tween-80 104 % of control
